This passage reports EC50 results from US20250019373A1, “ARYL OR HETEROARYL DERIVATIVE, AND PHARMACEUTICAL COMPOSITION COMPRISING SAME AS ACTIVE INGREDIENT FOR PREVENTION OR TREATMENT OF KINASE-RELATED DISEASES” (VORONOI INC., priority 2021, published 2025).

A word on the EC50: it is the concentration that produces a half-maximal response.

The assay has as its system HT-29 cells. The experiment in a line: Cell necrosis inhibitory activity under necroptosis-inducing conditions (TNF-α, Z-VAD-FMK, LCL161) in HT-29 cells, Cell Titer-Glo. The class given is cell-based. To be noted: Homo sapiens, 100 ng/mL TNF-α + 25 μM Z-VAD-FMK + Smac mimetic LCL161, 24 hours, cell viability. The procedure: To evaluate the cell necrosis inhibitory activity of the compound according to the present invention, an experiment was conducted as follows.
To evaluate the efficacy of inhibiting cell necrosis under TNF-α-mediated cell death-inducing conditions, a HT-29 cell line (Korean Cell Line Bank Accession No. #30038) was cultured in RPMI-1640 (HyClone #SH3027.01) medium containing 10% fetal bovine serum (FBS) and 1% penicillin/streptomycin to analyze cell viability. More specifically, for testing, the cell line was seeded in a 96-well flat bottom plate (Corning #3903) at a concentration of 10,000 cells/well and incubated at 37° C. under a 5% CO2 condition for 24 hours. Each well was treated with 100 ng/mL TNF-α, 25 μM pan-caspase inhibitor (Z-VAD-FMK, Selleckchem #S8102), and 10 µM Smac mimetic LCL161 (Selleckchem #S7009) and allowed to react for 10 minutes. The compounds of Examples were treated at 11 concentrations (the highest concentration being 0.1 μM or 1 μM) with a 3-fold concentration gradient, and as a control, dimethyl sulfoxide (DMSO) was treated at a concentration of 0.05% (v/v), which is the same as those when the compounds were treated. The treated cells were incubated for 24 hours. To confirm the degree of cell viability, 100 μL of Cell Titer-Glo (Promega #G7573) was added to the medium of the cultured cells and cultured for additional 10 minutes, and then luminescence was measured using a microplate reader. Based on the […] of control cells that were not treated with the compound, the degree of cell necrosis inhibitory activity was calculated according to the treatment concentration of each compound. Here, the concentration at which the cell necrosis inhibitory activity was 50% was determined as an EC50 (nM) value and calculated using Prism (ver. 8.4.3 #GraphPad) software.
Background: Cellular ATP, detected with luciferase, serves as a proxy for viable cell number.

SMILES strings stand for the structures.

For `Cc1ncc(-c2ccc3nc(N)nn3c2)cc1NC(=O)N1OCC[C@H]1c1ccccc1` [Example 33, (S)-N-(5-(2-amino-[1,2,4]triazolo[1,5-a]pyridin-6-yl)-2-methylpyridin-3-yl)-3-phenylisoxazolidine-2-carboxamide], the EC50 turned out to be 1.2 nM.

`Cc1cc(F)c(-c2ccc3nc(N)nn3c2)cc1NC(=O)N1OCC[C@H]1c1ccccc1` [Example 34, (S)-N-(5-(2-amino-[1,2,4]triazolo[1,5-a]pyridin-6-yl)-4-fluoro-2-methylphenyl)-3-phenylisoxazolidine-2-carboxamide]: the EC50 came to 0.5 nM.

In the case of `CC(=O)Nc1nc2ccc(-c3cnc(C)c(NC(=O)N4OCC[C@H]4c4ccccc4)c3)cn2n1` [Example 35, (S)-N-(5-(2-acetamido-[1,2,4]triazolo[1,5-a]pyridin-6-yl)-2-methylpyridin-3-yl)-3-phenylisoxazolidine-2-carboxamide], the EC50 turned out to be 3.2 nM.

In the case of `Cc1ncc(-c2ccc3nc(NC(=O)C4CC4)nn3c2)cc1NC(=O)N1OCC[C@H]1c1ccccc1` [Example 36, (S)-N-(5-(2-(cyclopropanecarboxamido)-[1,2,4]triazolo[1,5-a]pyridin-6-yl)-2-methylpyridin-3-yl)-3-phenylisoxazolidine-2-carboxamide], the EC50 worked out at 0.6 nM.

In the case of `Cc1ncc(-c2ccc3nc(N)nn3c2)cc1NC(=O)N1OCC[C@H]1c1cccc(F)c1` [Example 37, (S)-N-(5-(2-amino-[1,2,4]triazolo[1,5-a]pyridin-6-yl)-2-methylpyridin-3-yl)-3-(3-fluorophenyl)isoxazolidine-2-carboxamide], the EC50 came out at 1.1 nM.

As to `Cc1ncc(-c2ccc3nc(N)nn3c2)cc1NC(=O)N1OCC[C@H]1c1cc(F)cc(F)c1` [Example 38, (S)-N-(5-(2-amino-[1,2,4]triazolo[1,5-a]pyridin-6-yl)-2-methylpyridin-3-yl)-3-(3,5-difluorophenyl)isoxazolidine-2-carboxamide], the EC50 stood at 1.6 nM.

As for `Cc1ncc(-c2ccc3nc(N)nn3c2)cc1NC(=O)N1OCC[C@H]1c1cccc(Cl)c1` [Example 39, (S)-N-(5-(2-amino-[1,2,4]triazolo[1,5-a]pyridin-6-yl)-2-methylpyridin-3-yl)-3-(3-chlorophenyl)isoxazolidine-2-carboxamide], the EC50 was found to be 0.9 nM.

With `Cc1ncc(-c2ccc3nc(N)nn3c2)cc1NC(=O)N1OCC[C@H]1c1cccc(C(F)(F)F)c1` [Example 41, (S)-N-(5-(2-amino-[1,2,4]triazolo[1,5-a]pyridin-6-yl)-2-methylpyridin-3-yl)-3-(3-(trifluoromethyl)phenyl)isoxazolidine-2-carboxamide], the EC50 is 1 nM.

On to `Cc1ncc(-c2ccc3nc(N)nn3c2)cc1NC(=O)N1OCC[C@H]1c1ccc(F)c(Cl)c1` [Example 42, (S)-N-(5-(2-amino-[1,2,4]triazolo[1,5-a]pyridin-6-yl)-2-methylpyridin-3-yl)-3-(3-chloro-4-fluorophenyl)isoxazolidine-2-carboxamide], for which the EC50 was found to be 0.6 nM.

For `Cc1ncc(-c2ccc3nc(N)nn3c2)cc1NC(=O)N1OCC[C@H]1c1cc(F)cc(C(F)(F)F)c1` [Example 43, (S)-N-(5-(2-amino-[1,2,4]triazolo[1,5-a]pyridin-6-yl)-2-methylpyridin-3-yl)-3-(3-fluoro-5-(trifluoromethyl)phenyl)isoxazolidine-2-carboxamide], the EC50 came out at 7.3 nM.

With `Cc1ncc(-c2ccc3nc(N)nn3c2)cc1NC(=O)N1OCC[C@H]1c1ccc(Cl)c(C(F)(F)F)c1` [Example 44, (S)-N-(5-(2-amino-[1,2,4]triazolo[1,5-a]pyridin-6-yl)-2-methylpyridin-3-yl)-3-(4-chloro-3-(trifluoromethyl)phenyl)isoxazolidine-2-carboxamide], the EC50 amounted to 4.1 nM.

For `COc1cccc([C@@H]2CCON2C(=O)Nc2cc(-c3ccc4nc(N)nn4c3)cnc2C)c1` [Example 45, (S)-N-(5-(2-amino-[1,2,4]triazolo[1,5-a]pyridin-6-yl)-2-methylpyridin-3-yl)-3-(3-methoxyphenyl)isoxazolidine-2-carboxamide], the EC50 was 4.6 nM.

As for `Cc1ncc(-c2ccc3nc(N)nn3c2)cc1NC(=O)N1OCC[C@H]1c1cccc(C#N)c1` [Example 46, (S)-N-(5-(2-amino-[1,2,4]triazolo[1,5-a]pyridin-6-yl)-2-methylpyridin-3-yl)-3-(3-cyanophenyl)isoxazolidine-2-carboxamide], the EC50 turned out to be 19.4 nM.

For `COc1ncc(-c2ccn3nc(N)nc3c2)cc1NC(=O)N1OCC[C@H]1c1ccccc1` [Example 47, (S)-N-(5-(2-amino-[1,2,4]triazolo[1,5-a]pyridin-7-yl)-2-methoxypyridin-3-yl)-3-phenylisoxazolidine-2-carboxamide], the EC50 worked out at 0.5 nM.

As to `Cc1ncc(-c2ccn3nc(NC(=O)C4CC4)nc3c2)cc1NC(=O)N1OCC[C@H]1c1ccccc1` [Example 48, (S)-N-(5-(2-(cyclopropanecarboxamido)-[1,2,4]triazolo[1,5-a]pyridin-7-yl)-2-methylpyridin-3-yl)-3-phenylisoxazolidine-2-carboxamide], the EC50 stood at 0.4 nM.

For the compound `CC(=O)Nc1nc2cc(-c3cnc(C)c(NC(=O)N4OCC[C@H]4c4ccccc4)c3)ccn2n1` [Example 49, (S)-N-(5-(2-acetamido-[1,2,4]triazolo[1,5-a]pyridin-7-yl)-2-methylpyridin-3-yl)-3-phenylisoxazolidine-2-carboxamide], the EC50 was found to be 1.3 nM.

Consider `Cc1ncc(-c2ccn3nc(N)nc3c2)cc1NC(=O)N1OCC[C@H]1c1ccccc1` [Example 50, (S)-N-(5-(2-amino-[1,2,4]triazolo[1,5-a]pyridin-7-yl)-2-methylpyridin-3-yl)-3-phenylisoxazolidine-2-carboxamide], for which the EC50 stood at 1.3 nM.

For `Cc1ccc([C@@H]2CCON2C(=O)Nc2cc(-c3ccc4nc(N)nn4c3)cnc2C)cn1` [Example 51, (S)-N-(5-(2-amino-[1,2,4]triazolo[1,5-a]pyridin-6-yl)-2-methylpyridin-3-yl)-3-(6-methylpyridin-3-yl)isoxazolidine-2-carboxamide], the EC50 worked out at 23.3 nM.

On to `Cc1ncc(-c2ccc3nc(N)nn3c2)cc1NC(=O)N1OCC[C@H]1c1cc(F)cc(Cl)c1` [Example 52, (S)-N-(5-(2-amino-[1,2,4]triazolo[1,5-a]pyridin-6-yl)-2-methylpyridin-3-yl)-3-(3-chloro-5-fluorophenyl)isoxazolidine-2-carboxamide], for which the EC50 was found to be 2.8 nM.

`COc1ncc(-c2ccn3nc(N)nc3c2)cc1NC(=O)N1OCC[C@H]1c1cccc(F)c1` [Example 53, (S)-N-(5-(2-amino-[1,2,4]triazolo[1,5-a]pyridin-7-yl)-2-methoxypyridin-3-yl)-3-(3-fluorophenyl)isoxazolidine-2-carboxamide]: the EC50 came to 0.5 nM.

For the compound `COc1ncc(-c2ccn3nc(N)nc3c2)cc1NC(=O)N1OCC[C@H]1c1cc(F)cc(F)c1` [Example 54, (S)-N-(5-(2-amino-[1,2,4]triazolo[1,5-a]pyridin-7-yl)-2-methoxypyridin-3-yl)-3-(3,5-difluorophenyl)isoxazolidine-2-carboxamide], the EC50 stood at 0.4 nM.

Take `Cc1ncc(-c2ccc3nc(N)nn3c2)cc1NC(=O)N1OCC[C@H]1c1ccc(F)c(F)c1` [Example 55, (S)-N-(5-(2-amino-[1,2,4]triazolo[1,5-a]pyridin-6-yl)-2-methylpyridin-3-yl)-3-(3,4-difluorophenyl)isoxazolidine-2-carboxamide]: the EC50 was 0.6 nM.
